The values below come from article PMC9009073, “Transcriptome Analysis of Stephania tetrandra and Characterization of Norcoclaurine-6-O-Methyltransferase Involved in Benzylisoquinoline Alkaloid Biosynthesis” (Frontiers in Plant Science, 2022).

Structures are written as SMILES.

This test concerns St6OMT2. Nature of the test: UPLC quantification of (S)-coclaurine formed; Hill function fit. The class given is biochemical, Stephania tetrandra. Particulars: co-substrate S-adenosyl-L-methionine (1 mM in standard assay); 37°C; PBS; substrate 10–200 μM.

A word on the Km: it is the concentration of substrate that gives half-maximal velocity. With `Oc1ccc(C[C@@H]2NCCc3cc(O)c(O)cc32)cc1` [(S)-norcoclaurine], the Km amounted to 28.2 µM.
